The data set in a line: Particle size analysis of dalcetrapib crystals (Malvern MasterSizer 2000, laser diffraction). It counts as physicochemical. As to conditions: dispersant 0.1N HCl, sonicated 10 minutes. As to the method: The particle size distribution of dalcetrapib crystals from the bulk API and in the matrix of a hot-melt extruded composition produced according to Example 1 was determined according to the following method:
A Malvern MasterSizer 2000 was used for particle size measurement. The Fraunhofer optical model employed for analysis. The sample handling unit was a Hydro 2000S sonicator: Elma Model 9331. Sample measurement time was 20,000 snaps. The sample background time was 20,000 snaps. The dispersant media was 0.1N HCl, and the pump/stir speed was 2000 RPM.
Sample preparation was as follows: About 10-15 mg of the sample was weighed in 20 mL scintillation vial and 10 mL of de-ionized 0.1N HCl was added. The sample was vortexed for 15 seconds and then sonicated for 10 minutes @ 100% power.
The particle size distribution of dalcetrapib crystals in the matrices of hot-melt extruded compositions produced according to Example 5 was determined according to the following method:
A Malvern MasterSizer® 2000 was used for particle size measurement. The Fraunhofer® optical model employed for analysis. The sample handling unit was a Hydro 2000S sonicator: Elma Model 9331. Sample measurement time was 20,000 snaps. The sample background time was 20,000 snaps. The dispersant media was 0.1N HCl, and the pump/stir speed was 2000 RPM
Sample preparation was as follows: About 10-15 mg of the sample was weighed in a 20 mL scintillation vial and 10 mL of de-ionized 0.1N HCl was added. The sample was vortexed for 15 seconds and then sonicated for 10 minutes at 100% power.

In the case of `CCC(CC)CC1(C(=O)Nc2ccccc2SC(=O)C(C)C)CCCCC1` [bulk dalcetrapib, dalcetrapib], the “mean particle diameter D(0.1)” value amounted to 1.493 μm, the “mean particle diameter D(0.5)” value was 12.317 μm and the “mean particle diameter D(0.9)” value was 28.828 μm.

Values taken from US20120213827A1, “PROCESS FOR CONTROLLED CRYSTALLIZATION OF AN ACTIVE PHARMACEUTICAL INGREDIENT FROM SUPERCOOLED LIQUID STATE BY HOT MELT EXTRUSION” (priority 2011, published 2012).
